The values that follow come from ChEMBL document CHEMBL3352153, “Diastereoselective synthesis of potent antimalarial cis-β-lactam agents through a [2 + 2] cycloaddition of chiral imines with a chiral ketene” (Eur J Med Chem, 2014).

The IC50 is the midpoint of a concentration-inhibition curve. Low readings indicate greater potency, high ones weaker potency.

This assay concerns Plasmodium falciparum. The assay is described as follows: Antimalarial activity against chloroquine-resistant Plasmodium falciparum K14 infected in human red blood cells after 48 hrs by [3H]hypoxanthine incorporation assay. Type of assay: functional, organism-based.

In turn, `COc1ccc(N2C(=O)[C@H](O[C@@H]3C[C@H](C)CC[C@H]3C(C)C)[C@@H]2c2ccc(Cl)cc2)cc1` registered an IC50 above 50 µM. The molecule `COc1ccc(N2C(=O)[C@@H](O[C@@H]3C[C@H](C)CC[C@H]3C(C)C)[C@H]2c2ccc(Cl)cc2)cc1` returned an IC50 above 50 µM. Turning to `C[C@@H](c1ccccc1)N1C(=O)[C@H](Oc2ccccc2)[C@@H]1c1ccc(Cl)cc1`, half-maximal inhibition (IC50) required 42 µM.

Molecule `C[C@@H](c1ccccc1)N1C(=O)[C@@H](Oc2ccccc2)[C@H]1c1ccc(Cl)cc1` registered an IC50 of 42 µM. Under `CC(C)[C@@H]1CC[C@@H](C)C[C@H]1O[C@@H]1C(=O)N([C@@H](C)c2ccccc2)[C@@H]1c1ccc(Cl)cc1` stands 33 µM; under `CC(C)[C@@H]1CC[C@@H](C)C[C@H]1O[C@@H]1C(=O)N([C@@H](C)c2ccccc2)[C@@H]1c1ccccc1Cl`, 36 µM; under `CC(C)[C@@H]1CC[C@@H](C)C[C@H]1O[C@@H]1C(=O)N([C@@H](C)c2ccccc2)[C@@H]1/C=C/c1ccccc1`, above 50 µM. Turning to `COc1ccc([C@@H]2[C@H](O[C@@H]3C[C@H](C)CC[C@H]3C(C)C)C(=O)N2[C@@H](C)c2ccccc2)cc1`, 13 µM corresponded to half-maximal inhibition (IC50). Under `COc1cccc([C@@H]2[C@H](O[C@@H]3C[C@H](C)CC[C@H]3C(C)C)C(=O)N2[C@@H](C)c2ccccc2)c1` stands 8 µM; under `COc1ccc([C@@H]2[C@H](O[C@@H]3C[C@H](C)CC[C@H]3C(C)C)C(=O)N2[C@@H](C)c2ccccc2)cc1OC`, 8 µM; under `Cc1ccc([C@@H]2[C@H](O[C@@H]3C[C@H](C)CC[C@H]3C(C)C)C(=O)N2[C@@H](C)c2ccccc2)cc1`, 35 µM.

For the molecule `Cc1cccc([C@@H]2[C@H](O[C@@H]3C[C@H](C)CC[C@H]3C(C)C)C(=O)N2[C@@H](C)c2ccccc2)c1`, the IC50 was determined as 42 µM. To `CC(C)[C@@H]1CC[C@@H](C)C[C@H]1O[C@@H]1C(=O)N([C@@H](C)c2ccccc2)[C@@H]1c1ccc(F)cc1` belongs 19 µM; to `CC(C)[C@@H]1CC[C@@H](C)C[C@H]1O[C@@H]1C(=O)N([C@@H](C)c2ccccc2)[C@@H]1c1ccc(Br)cc1`, 11 µM. Take `CC(C)[C@@H]1CC[C@@H](C)C[C@H]1O[C@@H]1C(=O)N([C@@H](C)c2ccccc2)[C@@H]1c1ccc([N+](=O)[O-])cc1`: the IC50 was determined as 27 µM. Under `CC(C)[C@@H]1CC[C@@H](C)C[C@H]1O[C@@H]1C(=O)N([C@@H](C)c2ccccc2)[C@@H]1c1ccccc1[N+](=O)[O-]` stands 21 µM; under `CC(C)[C@@H]1CC[C@@H](C)C[C@H]1O[C@@H]1C(=O)N([C@@H](C)c2ccccc2)[C@@H]1c1ccc2ccccc2c1`, 10 µM.
